Laboratory results: patent US10807986B2, “Fused pyrimidine compound or salt thereof” (TAIHO PHARMACEUTICAL CO., LTD., priority 2016, dated 2020)

test: Evaluation of stability in liver microsome; details: mouse liver microsome 0.25 mg/mL, test compound 1 μM, 37° C., 30 minutes

| Remaining (%) | SMILES |
| --- | --- |
| 66 | COCc1ccc(NC(=O)c2c(C#Cc3cncc(F)c3)n(C3(C)CC3)c3ncnc(N)c23)cc1 [Example 175, 4-amino-6-((5-fluoropyridin-3-yl)ethynyl)-N-(4-(methoxymethyl)phenyl)-7-(1-methylcyclopropyl)-7H-pyrrolo[2,3-d]pyrimidine-5-carboxamide] |
| 70 | COCc1ccc(NC(=O)c2c(C#Cc3ccsc3)n(C3(C)CC3)c3ncnc(N)c23)cc1 [Example 176, 4-amino-N-(4-(methoxymethyl)phenyl)-7-(1-methylcyclopropyl)-6-(thiophen-3-ylethynyl)-7H-pyrrolo[2,3-d]pyrimidine-5-carboxamide] |
| 72 | COCc1ccc(NC(=O)c2c(C#CC3(O)CCOC3)n(C3(C)CC3)c3ncnc(N)c23)cc1 (stereo not drawn) [Example 177, 4-amino-6-((3-hydroxytetrahydrofuran-3-yl)ethynyl)-N-(4-(methoxymethyl)phenyl)-7-(1-methylcyclopropyl)-7H-pyrrolo[2,3-d]pyrimidine-5-carboxamide] |
| 88 | COCc1ccc(NC(=O)c2c(C#CCN3CC[S+]([O-])CC3)n(C3(C)CC3)c3ncnc(N)c23)cc1 [Example 178, 4-amino-N-(4-(methoxymethyl)phenyl)-7-(1-methylcyclopropyl)-6-(3-(1-oxidethiomorpholino)prop-1-yn-1-yl)-7H-pyrrolo[2,3-d]pyrimidine-5-carboxamide] |
| 85 | COCc1ccc(NC(=O)c2c(-c3ccc(CO)nc3)n(C3(C)CC3)c3ncnc(N)c23)cc1 [Example 179, 4-amino-6-(6-(hydroxymethyl)pyridin-3-yl)-N-(4-(methoxymethyl)phenyl)-7-(1-methylcyclopropyl)-7H-pyrrolo[2,3-d]pyrimidine-5-carboxamide] |
| 62 | COCc1ccc(NC(=O)c2c(C#Cc3cn(C)nc3C)n(C3(C)CC3)c3ncnc(N)c23)cc1 [Example 181, 4-amino-6-((1,3-dimethyl-1H-pyrazol-4-yl)ethynyl)-N-(4-(methoxymethyl)phenyl)-7-(1-methylcyclopropyl)-7H-pyrrolo[2,3-d]pyrimidine-5-carboxamide] |
| 61 | COCc1ccc(NC(=O)c2c(C#Cc3cnn(C)c3C)n(C3(C)CC3)c3ncnc(N)c23)cc1 [Example 182, 4-amino-6-((1,5-dimethyl-1H-pyrazol-4-yl)ethynyl)-N-(4-(methoxymethyl)phenyl)-7-(1-methylcyclopropy1)-7H-pyrrolo[2,3-d]pyrimidine-5-carboxamide] |
| 77 | COCc1ccc(NC(=O)c2c(C#CC3CCN(C)CC3)n(C3(C)CC3)c3ncnc(N)c23)cc1 [Example 183, 4-amino-N-(4-(methoxymethyl)phenyl)-7-(1-methylcyclopropyl)-6-((1-methylpiperidin-4-yl)ethynyl)-7H-pyrrolo[2,3-d]pyrimidine-5-carboxamide] |
| 58 | COCc1ccc(NC(=O)c2c(C#Cc3c(C)noc3C)n(C3(C)CC3)c3ncnc(N)c23)cc1 [Example 184, 4-amino-6-((3,5-dimethylisoxazol-4-yl)ethynyl)-N-(4-(methoxymethyl)phenyl)-7-(1-methylcyclopropyl)-7H-pyrrolo[2,3-d]pyrimidine-5-carboxamide] |
| 80 | COCc1ccc(NC(=O)c2c(C#CC3(O)CCOCC3)n(C3(C)CC3)c3ncnc(N)c23)cc1 [Example 185, 4-amino-6-((4-hydroxytetrahydro-2H-pyran4-yl)ethynyl)-N-(4-(methoxymethyl)phenyl)-7-(1-methylcyclopropyl)-7H-pyrrolo[2,3-d]pyrimidine-5-carboxamide] |
| 68 | COCc1ccc(NC(=O)c2c(C#CCCN3CCOCC3)n(C3(C)CC3)c3ncnc(N)c23)cc1 [Example 187, 4-amino-N-(4-(methoxymethyl)phenyl)-7-(1-methylcyclopropyl)-6-(4-morpholinobut-1-yn-1-yl)-7H-pyrrolo [2,3-d]pyrimidine-5-carboxamide] |
| 68 | COCc1ccc(NC(=O)c2c(C#CCC(C)O)n(C3(C)CC3)c3ncnc(N)c23)cc1 (stereo not drawn) [Example 188, 4-amino-6-(4-hydroxypent-1-yn-1-yl)-N-(4-(methoxymethyl)phenyl)-7-(1-methylcyclopropyl)-7H-pyrrolo[2,3-d]pyrimidine-5-carboxamide] |
| 58 | COCc1ccc(NC(=O)c2c(-c3ccc(F)nc3)n(C3(C)CC3)c3ncnc(N)c23)cc1 [Example 190, 4-amino-6-(6-fluoropyridin-3-yl)-N-(4-(methoxymethyl)phenyl)-7-(1-methylcyclopropyl)-7H-pyrrolo[2,3-d]pyrimidine-5-carboxamide] |
| 53 | COCc1ccc(NC(=O)c2c(C#Cc3cnc[nH]3)n(C3(C)CC3)c3ncnc(N)c23)cc1 [Example 191, 6-((1H-imidazol-5-yl)ethynyl)-4-amino-N-(4-(methoxymethyl)phenyl)-7-(1-methylcyclopropyl)-7H-pyrrolo[2,3-d]pyrimidine-5-carboxamide] |
| 79 | COCc1ccc(NC(=O)c2c(C#Cc3ccc(OC)nc3)n(C3(C)CC3)c3ncnc(N)c23)cc1 [Example 192, 4-amino-N-(4-(methoxymethyl)phenyl)-6-((6-methoxypyridin-3-yl)ethynyl)-7-(1-methylcyclopropyl)-7H-pyrrolo[2,3-d]pyrimidine-5-carboxamide] |
| 51 | COCc1ccc(NC(=O)c2c(C#Cc3cncs3)n(C3(C)CC3)c3ncnc(N)c23)cc1 [Example 193, 4-amino-N-[4-(methoxymethyl)phenyl]-7-(1-methylcyclopropyl)-6-(thiazol-5-ylethynyl)-7H-pyrrolo[2,3-d]pyrimidine-5-carboxamide] |
| 67 | COCc1ccc(NC(=O)c2c(-c3cncnc3)n(C3(C)CC3)c3ncnc(N)c23)cc1 [Example 194, 4-amino-N-(4-(methoxymethyl)phenyl)-7-(1-methylcyclopropyl)-6-(pyrimidin-5-yl)-7H-pyrrolo[2,3-d]pyrimidine-5-carboxamide] |
| 70 | COCc1ccc(NC(=O)c2c(C#Cc3cncc(C#N)c3)n(C3(C)CC3)c3ncnc(N)c23)cc1 [Example 195, 4-amino-6-((5-cyanopyridin-3-yl)ethynyl)-N-(4-(methoxymethyl)phenyl)-7-(1-methylcyclopropyl)-7H-pyrrolo[2,3-d]pyrimidine-5-carboxamide] |
| 53 | COCc1ccc(NC(=O)c2c(C#Cc3cncnc3)n(C3(C)CC3)c3ncnc(N)c23)cc1 [Example 196, 4-amino-N-(4-(methoxymethyl)phenyl)-7-(1-methylcyclopropyl)-6-(pyrimidin-5-ylethynyl)-7H-pyrrolo[2,3-d]pyrimidine-5-carboxamide] |
| 52 | COCCN(C)CC#Cc1c(C(=O)Nc2ccc(COC)cc2)c2c(N)ncnc2n1C1(C)CC1 [Example 197, 4-amino-6-(3-((2-methoxyethyl)(methyl)amino)prop-1-yn-1-yl)-N-(4-(methoxymethyl)phenyl)-7-(1-methylcyclopropyl)-7H-pyrrolo[2,3-d]pyrimidine-5-carboxamide] |
| 57 | COCc1ccc(NC(=O)c2c(C#CCN(C)C)n(C3(C)CC3)c3ncnc(N)c23)cc1 [Example 198, 4-amino-6-(3-(dimethylamino)prop-1-yn-1-yl)-N-(4-(methoxymethyl)phenyl)-7-(1-methylcyclopropyl)-7H-pyrrolo[2,3-d]pyrimidine-5-carboxamide] |
